Test results taken from PubChem BioAssay (NCI).
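How tested: cells in 96-well plates exposed to compound for 48 hours at five concentrations. GI50 is the concentration that inhibits growth by half. TGI denotes the concentration required for complete inhibition of growth.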

Columns and labels:
Test in all cases: NCI-60 cell line screen, 48 h
A549 NSCLC = tested on: A549 NSCLC
HT29 colon = tested on: HT29 colon
NCI-H23 lung = tested on: NCI-H23 lung
SF-295 CNS = tested on: SF-295 CNS
SF-539 CNS = tested on: SF-539 CNS
EKVX NSCLC = tested on: EKVX NSCLC
CAKI-1 renal = tested on: CAKI-1 renal
RXF 393 renal = tested on: RXF 393 renal
SN12C renal = tested on: SN12C renal
UACC-257 melanoma = tested on: UACC-257 melanoma

| Compound | TGI (A549 NSCLC) [µM] | TGI (HT29 colon) [µM] | TGI (NCI-H23 lung) [µM] | TGI (SF-295 CNS) [µM] | TGI (SF-539 CNS) [µM] | TGI (EKVX NSCLC) [µM] | TGI (CAKI-1 renal) [µM] | TGI (RXF 393 renal) [µM] | TGI (SN12C renal) [µM] | TGI (UACC-257 melanoma) [µM] | GI50 (A549 NSCLC) [µM] | GI50 (HT29 colon) [µM] | GI50 (NCI-H23 lung) [µM] | GI50 (SN12C renal) [µM] | GI50 (SF-295 CNS) [µM] | GI50 (UACC-257 melanoma) [µM] | GI50 (SF-539 CNS) [µM] | GI50 (EKVX NSCLC) [µM] | GI50 (RXF 393 renal) [µM] |
| --- | --- | --- | --- | --- | --- | --- | --- | --- | --- | --- | --- | --- | --- | --- | --- | --- | --- | --- | --- |
| CN(C)S(=O)(=O)Nc1nnc(S(N)(=O)=O)s1 | > 100 | > 100 | > 100 | > 100 | > 100 | > 100 | > 100 | > 100 | – | – | – | – | – | – | – | – | – | – | – |
| CCC(C)C(=O)OC1CC2(C)C(c3ccoc3)OC(=O)CC23OC2(C)OC34C(OC(=O)C(C)C)C3(O)C(OC(=O)C5(C)OC5C)C5(C)CC3(O)C(C)(C5CC(=O)OC)C14O2 (stereo not drawn) | > 100 | > 100 | > 100 | > 100 | 79.6 | > 100 | > 100 | – | > 100 | > 100 | – | – | – | – | – | – | – | – | – |
| O=C(O)C(CS)N=c1c2ccccc2n(O)c2ccccc12 (stereo not drawn) | > 100 | > 100 | > 100 | > 100 | – | > 100 | > 100 | – | > 100 | > 100 | – | – | – | – | – | – | – | – | – |
| COC(=O)C1CC2(c3ccccc3)C(=O)c3ccccc3N2O1 (stereo not drawn) | > 100 | > 100 | > 100 | > 100 | > 100 | > 100 | > 100 | – | > 100 | > 100 | – | – | – | – | – | – | – | – | – |
| N#Cc1c(-c2ccc(F)cc2)nc(N/N=C/c2c[nH]c3ccccc23)nc1N1CCOCC1 | 69.9 | 22.6 | 92.7 | 4.29 | 23 | 86.9 | – | 3.97 | > 100 | 4.87 | 3.99 | 1.11 | 21.2 | 16.6 | 1.89 | 2.2 | 3.68 | 5.44 | 1.19 |
| CN(C)CCn1c(=O)c2ccc(NCCCN(C)CCCNc3ccc4c(=O)n(CCN(C)C)c(=O)n5c6ccc([N+](=O)[O-])cc6c(=O)c3c45)c3c(=O)c4cc([N+](=O)[O-])ccc4n(c1=O)c23 | 0.308 | 0.726 | 0.171 | 0.594 | 0.851 | 1.32 | 1.16 | – | 0.165 | 2.13 | – | – | – | – | – | – | – | – | – |
| CC1CC(=O)Nc2nc3ccccc3n21 (stereo not drawn) | > 100 | > 100 | > 100 | > 100 | > 100 | > 100 | > 100 | > 100 | – | > 100 | – | – | – | – | – | – | – | – | – |
| COC(=O)C1=Nc2c(C)nn(-c3ccccc3)c2N=C(c2ccc([N+](=O)[O-])cc2)C1 | > 10 | > 10 | > 10 | > 10 | > 10 | – | > 10 | – | > 10 | > 10 | – | – | – | – | – | – | – | – | – |
| O=C(N/N=C/c1cc(Br)cc(Br)c1[O-])c1ccccc1O.O=C(N/N=C/c1cc(Br)cc(Br)c1[O-])c1ccccc1O.[Fe+2] | 29.3 | 19.7 | 9.66 | 15.8 | 14.1 | 50.3 | 34.5 | 20.6 | – | – | – | – | – | – | – | – | – | – | – |
| COC1(OC)CCCCC2c3cccc(OC(C)=O)c3C21OC(C)=O (stereo not drawn) | > 100 | > 100 | > 100 | > 100 | > 100 | > 100 | – | – | > 100 | > 100 | – | – | – | – | – | – | – | – | – |
| CC1(C(=O)O)CCCC1C(=O)O (stereo not drawn) | > 100 | > 100 | > 100 | > 100 | – | > 100 | > 100 | > 100 | > 100 | > 100 | – | – | – | – | – | – | – | – | – |
| COc1ccc(Nc2nc3c([nH]2)c(=O)n(C)c(=O)n3C)cc1 | > 10 | > 10 | > 10 | > 10 | – | > 10 | > 10 | > 10 | > 10 | > 10 | – | – | – | – | – | – | – | – | – |
| COc1ccc2c(c1)CC1=C(O2)c2ccc(OC)cc2OC1 | > 100 | 72.9 | > 100 | > 100 | 85.1 | 52.5 | 37.1 | – | 44.3 | 37.8 | – | – | – | – | – | – | – | – | – |
| O=C(N/N=C/c1ccco1)c1cc(I)cc(I)c1O | > 50 | > 50 | > 50 | – | 26 | 37.2 | > 50 | > 50 | 38.7 | – | – | – | – | – | – | – | – | – | – |
| Cn1c([O-])nc(-n2cc[n+](C)c2)cc1=O | > 100 | > 100 | > 100 | – | > 100 | > 100 | – | > 100 | > 100 | > 100 | – | – | – | – | – | – | – | – | – |
| Cc1cc2[nH]c3c(C#N)c4c(c(=O)n3c2cc1C)CCCC4 | > 100 | > 100 | > 100 | 29.5 | > 100 | > 100 | > 100 | – | > 100 | > 100 | – | – | – | – | – | – | – | – | – |
| COc1cc(/C=C\C(=O)O)ccc1OCc1ccccc1 | > 100 | – | > 100 | > 100 | > 100 | > 100 | > 100 | > 100 | > 100 | > 100 | – | – | – | – | – | – | – | – | – |
| O=[N+]([O-])c1ccc(-c2ccc(-c3csc(Nc4ccccn4)n3)o2)cc1 | – | > 100 | – | > 100 | – | – | > 100 | – | > 100 | > 100 | – | – | – | – | – | – | – | – | – |
| COc1ccc2cc(NC(=O)N/N=C\c3ccc(Cl)cc3)ccc2c1 | > 100 | > 100 | > 100 | > 100 | > 100 | > 100 | > 100 | – | > 100 | > 100 | – | – | – | – | – | – | – | – | – |
| Brc1cc2nn(-c3ccccc3)nc2c2nonc12 | > 100 | > 100 | > 100 | > 100 | > 100 | > 100 | > 100 | – | > 100 | > 100 | – | – | – | – | – | – | – | – | – |
| CC(=O)OCC(OC(C)=O)C1C[C@H]2O[C@@H]3[C@H](C[C@H]2O1)O[C@@]1(C[C@@H]3C)C[C@H](C)[C@@H]2O[C@]3(C[C@@H]2O1)C[C@H]1O[C@H]2[C@H](C)[C@H]4OC(=O)CC5CC[C@H]6OC7[C@H]8O[C@]9(CC[C@H]%10CC(O)(CO)[C@H](CC[C@H]%11C[C@@H](C)C(O)(CO)C(C[C@@H]4O[C@H]2C[C@H]1O3)O%11)O%10)CC8O[C@@H]7[C@@H](O9)[C@H]6O5 (stereo partly drawn) | > 1 | – | – | > 0.301 | – | > 1 | > 1 | – | > 1 | > 1 | – | – | – | – | – | – | – | – | – |
| O=C(Cc1ccc([N+](=O)[O-])cc1)OCC#CCOC(=O)Cc1ccc([N+](=O)[O-])cc1 | > 10 | > 10 | > 10 | > 10 | > 10 | > 10 | – | > 10 | > 10 | > 10 | – | – | – | – | – | – | – | – | – |
